Test system: lecithin cholesterol acyltransferase (LCAT)
Experiment: Effect upon activity of lecithin cholesterol acyltransferase in rats suffering from hyperlipemia
Format: in vivo, rat
From the text: The original lecithin and cholesterol in the serum were used as substrates, which were kept warm for some time. Because of the effect of lecithin cholesterol acyltransferase (LCAT), cholesterolester (CE) in serum was increased, but free cholesterol (FC) decreased. Then cholesterol was oxidized by cholesterol oxidase and hydrogen peroxide was produced. The latter reacted with […] and phenol under the action of horseradish peroxidase to produce red quinone imide, which can be used for colorimetric analysis to determine the content of FC. The decrease in FC, ie, the esterification of cholesterol can indicate the activity of LCAT in magnitude. […]
(2) Two portions of 0.1 ml fresh serum were taken from each animal of each group and were preheated in water bath at 37° C. for five minutes, to one portion of which 3 ml cholesterol enzyme-linked reagent application solution was added (30 ml enzyme reaction solution for 1 ml cholesterol enzyme-linked reagent), mixed thoroughly and heated in water bath at 37° C. for 15 minutes while blank control tube and standard tube (0.05 ml standard cholesterol absolute alcohol solution) were made. […] OD was read and FC content was calculated in terms of Beer's law, which was the serum FC content before reaction. […] Then FC content was determined as above, expressed as OD, which was the serum FC content after reaction. […]

CCOC(=O)C(C)(C)Oc1ccc(Cl)cc1 [Astromid-s]
Effect on activity of LCAT (in words) (0.13 g/kg): not noticeable
LCAT activity (TC esterification nmol/ml/h) (hyperlipemia rat serum, dose 0.13 g/kg for seven days, x ± SD): 536 ± 277 nmol/mL/h

Reference: patent US20050142231A1, “Pharmaceutical activity and manufacturing method of the five-plant compound hypolipemic products” (priority 2003, published 2005)
